Results as given in US20180263985A1, “MODULATORS OF TOLL-LIKE RECEPTORS FOR THE TREATMENT OF HIV” (Gilead Sciences, Inc., priority 2015, published 2018).

System: PBMC cultures from HIV-1 infected subjects on cART
Test: Induced cytokines and chemokines in PBMC cultures, multiplexed xMAP Luminex, geometric mean values
Type: cell-based, human
Conditions: for GRO-α Fold / Granzyme B Fold / I-TAC Fold / IFN-α Fold / IFN-γ Fold / IL-1RA Fold / IL-1β Fold / IL-6 Fold / IL-8 Fold / IL-10 Fold / IL-18 Fold / IL-23 Fold / IP-10 Fold / MCP-1 Fold / MIP-1α Fold / MIP-1β Fold / MIP-3α Fold / MMP-1 Fold / TNF-α Fold / IL-12p70 Fold: day 2, 4 subjects
Method: To further characterize the immune modulatory effect of TLR8 agonists in cells from HIV-infected subjects, the production of secreted cytokines and chemokines was measured in PBMCs from 4 HIV-infected subjects on suppressive cART (anonymized participant IDs 180-183). PBMCs were purified, as described in Example 121, and immediately added to tissue culture plates pre-equilibrated at 37° C. with media containing DMSO (vehicle control) or with the TLR8 modulating compound Example 15 at concentrations ranging from 1.0 nM to 10.0 μM. On day 2 after treatment, cell-free culture supernatants were collected and frozen at −80 C for subsequent analysis. Frozen supernatants were thawed at room temperature, and the indicated cytokines and chemokines were quantified with a custom multiplexed xMAP Luminex® assay following the manufacturer's instructions (Thermo Fisher Scientific Inc., Grand Island, N.Y., custom-designed kit).
Data are expressed as geometric mean cytokine values (pg/ml) obtained from 4 subjects' PBMCs. Geometric mean fold-activation from three independent incubation samples for each condition. Fold (fold-activation) is calculated as a ratio of the concentration of cytokine detected in cell culture supernatants from agonist treated samples relative to DMSO treated samples

[1] = 1.0 nM to 10.0 μM, not induced >2-fold

For `CCCC[C@H](CO)Nc1nc(N)nc2cccnc12` [Example 15], the “IFN-ω induction compared to DMSO control” value [1] was no more than 2 fold, the “IL-2 induction compared to DMSO control” value [1] was no more than 2 fold and the “IL-4 induction compared to DMSO control” value [1] was no more than 2 fold. For the same compound, the “IL-5 induction compared to DMSO control” value [1] was no more than 2 fold, the “IL-7 induction compared to DMSO control” value [1] was no more than 2 fold and the “IL-15 induction compared to DMSO control” value [1] was no more than 2 fold. For the same compound, the “IL-17A induction compared to DMSO control” value [1] was no more than 2 fold, the “IL-21 induction compared to DMSO control” value [1] was no more than 2 fold and the “IL-27 induction compared to DMSO control” value [1] was no more than 2 fold. The “IL-29 induction compared to DMSO control” value [1] was no more than 2 fold, the “GRO-α Fold” value (1 nM vs DMSO) was 1 fold and the “Granzyme B Fold” value (1 nM vs DMSO) was less than 1 fold. For the same compound, the “I-TAC Fold” value (1 nM vs DMSO) was 2 fold, the “IFN-α Fold” value (1 nM vs DMSO) was 2 fold and the “IFN-γ Fold” value (1 nM vs DMSO) was 2 fold. The “IL-1RA Fold” value (1 nM vs DMSO) was 3 fold, the “IL-1β Fold” value (1 nM vs DMSO) was 2 fold and the “IL-6 Fold” value (1 nM vs DMSO) was 1 fold. The “IL-8 Fold” value (1 nM vs DMSO) was 2 fold, the “IL-10 Fold” value (1 nM vs DMSO) was 1 fold and the “IL-18 Fold” value (1 nM vs DMSO) was 1 fold. The “IL-23 Fold” value (1 nM vs DMSO) was 2 fold, the “IP-10 Fold” value (1 nM vs DMSO) was 3 fold and the “MCP-1 Fold” value (1 nM vs DMSO) was 3 fold. For the same compound, the “MIP-1α Fold” value (1 nM vs DMSO) was 5 fold, the “MIP-1β Fold” value (1 nM vs DMSO) was 2 fold and the “MIP-3α Fold” value (1 nM vs DMSO) was 1 fold. The “MMP-1 Fold” value (1 nM vs DMSO) was 1 fold, the “GRO-α Fold” value (10 nM vs DMSO) was 1 fold and the “Granzyme B Fold” value (10 nM vs DMSO) was less than 1 fold. For the same compound, the “I-TAC Fold” value (10 nM vs DMSO) was 1 fold, the “IFN-α Fold” value (10 nM vs DMSO) was 2 fold and the “IFN-γ Fold” value (10 nM vs DMSO) was 2 fold. The “IL-1RA Fold” value (10 nM vs DMSO) was 1 fold, the “IL-1β Fold” value (10 nM vs DMSO) was 1 fold and the “IL-6 Fold” value (10 nM vs DMSO) was 1 fold. The “IL-8 Fold” value (10 nM vs DMSO) was 1 fold, the “IL-10 Fold” value (10 nM vs DMSO) was 1 fold and the “IL-18 Fold” value (10 nM vs DMSO) was 2 fold. For the same compound, the “IL-23 Fold” value (10 nM vs DMSO) was 1 fold, the “IP-10 Fold” value (10 nM vs DMSO) was 1 fold and the “MCP-1 Fold” value (10 nM vs DMSO) was 1 fold. The “MIP-1α Fold” value (10 nM vs DMSO) was 1 fold, the “MIP-1β Fold” value (10 nM vs DMSO) was 1 fold and the “MIP-3α Fold” value (10 nM vs DMSO) was 1 fold. The “MMP-1 Fold” value (10 nM vs DMSO) was 1 fold, the “TNF-α Fold” value (10 nM vs DMSO) was 2 fold and the “GRO-α Fold” value (100 nM vs DMSO) was 20 fold. For the same compound, the “Granzyme B Fold” value (100 nM vs DMSO) was less than 1 fold, the “I-TAC Fold” value (100 nM vs DMSO) was 1 fold and the “IFN-α Fold” value (100 nM vs DMSO) was 1 fold. For the same compound, the “IFN-γ Fold” value (100 nM vs DMSO) was 2 fold, the “IL-1RA Fold” value (100 nM vs DMSO) was 12 fold and the “IL-1β Fold” value (100 nM vs DMSO) was 45 fold. The “IL-6 Fold” value (100 nM vs DMSO) was 57 fold, the “IL-8 Fold” value (100 nM vs DMSO) was 8 fold and the “IL-10 Fold” value (100 nM vs DMSO) was 145 fold. For the same compound, the “IL-12p70 Fold” value (100 nM vs DMSO) was 2 fold, the “IL-18 Fold” value (100 nM vs DMSO) was 1 fold and the “IL-23 Fold” value (100 nM vs DMSO) was 2 fold. The “IP-10 Fold” value (100 nM vs DMSO) was 1 fold, the “MCP-1 Fold” value (100 nM vs DMSO) was 33 fold and the “MIP-1α Fold” value (100 nM vs DMSO) was 3 fold. The “MIP-1β Fold” value (100 nM vs DMSO) was 1 fold, the “MIP-3α Fold” value (100 nM vs DMSO) was 1 fold and the “MMP-1 Fold” value (100 nM vs DMSO) was 2 fold. For the same compound, the “TNF-α Fold” value (100 nM vs DMSO) was 6 fold, the “GRO-α Fold” value (1000 nM vs DMSO) was 18 fold and the “Granzyme B Fold” value (1000 nM vs DMSO) was 4 fold. The “I-TAC Fold” value (1000 nM vs DMSO) was 2 fold, the “IFN-α Fold” value (1000 nM vs DMSO) was 3 fold and the “IFN-γ Fold” value (1000 nM vs DMSO) was 228 fold. The “IL-1RA Fold” value (1000 nM vs DMSO) was 46 fold, the “IL-1β Fold” value (1000 nM vs DMSO) was 1578 fold and the “IL-6 Fold” value (1000 nM vs DMSO) was 290 fold. For the same compound, the “IL-8 Fold” value (1000 nM vs DMSO) was 5 fold, the “IL-10 Fold” value (1000 nM vs DMSO) was 219 fold and the “IL-12p70 Fold” value (1000 nM vs DMSO) was 175 fold. The “IL-18 Fold” value (1000 nM vs DMSO) was 11 fold, the “IL-23 Fold” value (1000 nM vs DMSO) was 8 fold and the “IP-10 Fold” value (1000 nM vs DMSO) was 3 fold. The “MCP-1 Fold” value (1000 nM vs DMSO) was 22 fold, the “MIP-1α Fold” value (1000 nM vs DMSO) was 374 fold and the “MIP-1β Fold” value (1000 nM vs DMSO) was 340 fold. For the same compound, the “MIP-3α Fold” value (1000 nM vs DMSO) was 42 fold, the “MMP-1 Fold” value (1000 nM vs DMSO) was 3 fold and the “TNF-α Fold” value (1000 nM vs DMSO) was 1661 fold. For the same compound, the “GRO-α Fold” value (3000 nM vs DMSO) was 18 fold, the “Granzyme B Fold” value (3000 nM vs DMSO) was 4 fold and the “I-TAC Fold” value (3000 nM vs DMSO) was 2 fold. For the same compound, the “IFN-α Fold” value (3000 nM vs DMSO) was 3 fold, the “IFN-γ Fold” value (3000 nM vs DMSO) was 143 fold and the “IL-1RA Fold” value (3000 nM vs DMSO) was 25 fold. The “IL-1β Fold” value (3000 nM vs DMSO) was 1767 fold, the “IL-6 Fold” value (3000 nM vs DMSO) was 195 fold and the “IL-8 Fold” value (3000 nM vs DMSO) was 4 fold. The “IL-10 Fold” value (3000 nM vs DMSO) was 279 fold, the “IL-12p70 Fold” value (3000 nM vs DMSO) was 127 fold and the “IL-18 Fold” value (3000 nM vs DMSO) was 18 fold. The “IL-23 Fold” value (3000 nM vs DMSO) was 19 fold, the “IP-10 Fold” value (3000 nM vs DMSO) was 3 fold and the “MCP-1 Fold” value (3000 nM vs DMSO) was 25 fold. For the same compound, the “MIP-1α Fold” value (3000 nM vs DMSO) was 421 fold, the “MIP-1β Fold” value (3000 nM vs DMSO) was 240 fold and the “MIP-3α Fold” value (3000 nM vs DMSO) was 82 fold. The “MMP-1 Fold” value (3000 nM vs DMSO) was 3 fold, the “TNF-α Fold” value (3000 nM vs DMSO) was 3051 fold and the “GRO-α Fold” value (10000 nM vs DMSO) was 19 fold. The “Granzyme B Fold” value (10000 nM vs DMSO) was 3 fold, the “I-TAC Fold” value (10000 nM vs DMSO) was 1 fold and the “IFN-α Fold” value (10000 nM vs DMSO) was 2 fold. For the same compound, the “IFN-γ Fold” value (10000 nM vs DMSO) was 59 fold, the “IL-1RA Fold” value (10000 nM vs DMSO) was 25 fold and the “IL-1β Fold” value (10000 nM vs DMSO) was 2204 fold. The “IL-6 Fold” value (10000 nM vs DMSO) was 241 fold, the “IL-8 Fold” value (10000 nM vs DMSO) was 4 fold and the “IL-10 Fold” value (10000 nM vs DMSO) was 304 fold. For the same compound, the “IL-12p70 Fold” value (10000 nM vs DMSO) was 38 fold, the “IL-18 Fold” value (10000 nM vs DMSO) was 13 fold and the “IL-23 Fold” value (10000 nM vs DMSO) was 16 fold. For the same compound, the “IP-10 Fold” value (10000 nM vs DMSO) was 2 fold, the “MCP-1 Fold” value (10000 nM vs DMSO) was 27 fold and the “MIP-1α Fold” value (10000 nM vs DMSO) was 487 fold. The “MIP-1β Fold” value (10000 nM vs DMSO) was 196 fold, the “MIP-3α Fold” value (10000 nM vs DMSO) was 65 fold and the “MMP-1 Fold” value (10000 nM vs DMSO) was 8 fold. The “TNF-α Fold” value (10000 nM vs DMSO) was 1096 fold.
